Experimental data published in US11098041B2 (Merck Patent GmbH, priority 2014, dated 2021).

Legend:
[1] = biological target: BTK C481S (His-TEV-hsBTK(328-659)(C481S)) (Homo sapiens (Human), UniProt Q06187, C481S); assay: Assay B: microfluidic off-chip mobility shift assay against BTK C481S enzyme; type: biochemical; conditions: BTK C481S mutant
In short: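 Substrate-to-phosphopeptide conversion quantified by microfluidic mobility shift with laser-induced fluorescence; IC50 and efficacy from log[inhibitor] vs. % activity.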

[2] = biological target: full-length human BTK (Homo sapiens (Human), UniProt Q06187); assay: Assay A: microfluidic off-chip mobility shift assay against BTK enzyme; type: biochemical
[3] = test system: anti-IgM-induced expression of CD69 on CD19 positive cells (B cells) in human PBMCs; assay: Assay C: PBMC IC50 assay (anti-IgM-induced CD69 expression); type: cell-based; conditions: anti-IgM stimulation
Procedure: Btk is critical for mediating the signalling of B cell antigen receptor (BCR) after anti-IgM stimulation. Based on this principle, a functional cell-based assay was established to determine the potency of compounds at inhibiting anti-IgM-induced expression of CD69, a downstream BCR signaling event, in freshly isolated human peripheral blood mononuclear cells (PBMCs). In the assay, a 90 μl PBMC suspension containing 2.5×10^5 cells was pre-treated with 10 μl of test compound at various concentrations for an hour, and then incubated overnight (approximately 16-18 hours) with 5 μl 420 μg/ml affiniPure F(ab′)2 fragment goat anti-human IgM Fc fragment per well (Dianova, Cat. No.: 109-006-129). After the incubation, the cells were washed and immunostained with an APC-labeled mouse anti-human CD69 (BD Biosciences; clone: FN50), a PerCP-Cy5.5 labelled mouse anti-human CD19 (BD Biosciences; clone: SJ25C1) and a FITC-labelled mouse anti-human CD3 (BD Biosciences; clone: HIT3a), and fixed for flow cytometric analysis of CD69 expression on CD19 positive cells (B cells). The percentage of CD69 expressing CD19 positive cells was plotted against the concentrations of test compounds to obtain a concentration response curve, and calculate an IC50 value as a measure of the potency of test compounds in the assay.

Chain of full-length human BTK (Q06187 whole entry): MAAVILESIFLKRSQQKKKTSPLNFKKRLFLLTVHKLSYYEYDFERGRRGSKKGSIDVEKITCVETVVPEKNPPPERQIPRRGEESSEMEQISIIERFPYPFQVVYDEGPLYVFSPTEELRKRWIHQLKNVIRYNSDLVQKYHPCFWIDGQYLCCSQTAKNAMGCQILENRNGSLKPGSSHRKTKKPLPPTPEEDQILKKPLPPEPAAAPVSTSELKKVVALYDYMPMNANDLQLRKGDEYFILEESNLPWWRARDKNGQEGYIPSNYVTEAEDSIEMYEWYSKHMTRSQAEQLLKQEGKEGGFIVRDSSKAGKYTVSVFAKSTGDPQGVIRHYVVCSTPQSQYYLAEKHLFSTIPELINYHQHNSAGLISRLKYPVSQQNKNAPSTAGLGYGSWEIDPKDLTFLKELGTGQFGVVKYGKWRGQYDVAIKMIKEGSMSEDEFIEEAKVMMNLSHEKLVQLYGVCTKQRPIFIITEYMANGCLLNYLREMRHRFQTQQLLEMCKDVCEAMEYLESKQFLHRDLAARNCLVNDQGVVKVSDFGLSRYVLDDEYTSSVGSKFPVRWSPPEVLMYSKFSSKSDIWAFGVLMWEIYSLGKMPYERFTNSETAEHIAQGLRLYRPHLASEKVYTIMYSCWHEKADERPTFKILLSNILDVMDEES
Chain of BTK C481S (His-TEV-hsBTK(328-659)(C481S)) (Q06187 328-659 C481S): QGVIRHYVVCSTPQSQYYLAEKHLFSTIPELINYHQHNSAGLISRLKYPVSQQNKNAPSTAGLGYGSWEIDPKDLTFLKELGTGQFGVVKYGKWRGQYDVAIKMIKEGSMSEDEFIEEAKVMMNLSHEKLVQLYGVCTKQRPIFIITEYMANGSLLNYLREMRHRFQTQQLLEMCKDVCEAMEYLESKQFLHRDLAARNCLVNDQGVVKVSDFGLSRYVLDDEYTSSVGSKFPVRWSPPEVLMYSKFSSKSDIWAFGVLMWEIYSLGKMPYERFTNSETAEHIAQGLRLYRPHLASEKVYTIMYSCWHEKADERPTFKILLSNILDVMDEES

Row | IC50 [1] [nM] | IC50 [2] [nM] | SMILES | IC50 [3] [nM]
1 | < 100 | < 100 | Cn1cc(-c2nc3c(-c4ccc(CNC(=O)c5nc(C(C)(C)C)no5)cc4CO)ccnc3[nH]2)cn1 [Example 105, 3-tert-Butyl-[1,2,4]oxadiazole-5-carboxylic acid 3-hydroxymethyl-4-[2-(1-methyl-1H-pyrazol-4-yl)-3H-imidazo[4,5-b]pyridin-7-yl]-benzylamide] | 1000 to 5000
2 | < 100 | < 100 | CCn1cc(-c2nc3c(-c4ccc(CNC(=O)c5cc6c(s5)CCCC6)c(F)c4)ccnc3[nH]2)cn1 [Example 130, 4,5,6,7-Tetrahydro-benzo[b]thiophene-2-carboxylic acid 4-[2-(1-ethyl-1H-pyrazol-4-yl)-3H-imidazo[4,5-b]pyridin-7-yl]-2-fluoro-benzylamide] | 100 to 1000
3 | < 100 | < 100 | Cn1cc(-c2nc3c(-c4ccc(C(C)(C)NC(=O)c5nnc(C(C)(C)C)o5)c(F)c4)ccnc3[nH]2)cn1 [Example 104, 5-tert-Butyl-[1,3,4]oxadiazole-2-carboxylic acid (1-{2-fluoro-4-[2-(1-methyl-1H-pyrazol-4-yl)-3H-imidazo[4,5-b]pyridin-7-yl]-phenyl}-1-methyl-ethyl)-amide] | 1000 to 5000
4 | < 100 | < 100 | COc1ccc(-c2nc3c(-c4ccc(CNC(=O)c5ccc(C6CC6)cc5)c(F)c4)ccnc3[nH]2)cc1 [Example 63, 4-Cyclopropyl-N-([2-fluoro-4-[2-(4-methoxyphenyl)-3H-imidazo[4,5-b]pyridin-7-yl]phenyl]methyl) benzamide] | 1000 to 5000
5 | < 100 | < 100 | COc1ccc(-c2nc3c(-c4ccc(CNC(=O)c5ccc(C(C)(C)C)cc5)c(F)c4)ccnc3[nH]2)cc1 [Example 62, 4-tert-Butyl-N-([2-fluoro-4-[2-(4-methoxyphenyl)-3H-imidazo[4,5-b]pyridin-7-yl]phenyl]methyl) benzamide] | 100 to 1000
6 | < 100 | < 100 | Cn1cc(-c2nc3c(-c4cccc(NC(=O)c5cc6c(s5)CCCC6)c4CO)ccnc3[nH]2)cn1 [Example 50, N-[2-(hydroxymethyl)-3-[2-(1-methyl-1H-pyrazol-4-yl)-3H-imidazo[4,5-b]pyridin-7-yl]phenyl]-4,5,6,7-tetrahydro-1-benzothiophene-2-carboxamide] | 100 to 1000
7 | < 100 | < 100 | Cc1cc(-c2ccnc3[nH]c(-c4cnn(C)c4)nc23)ccc1CNC(=O)c1nnc(C(C)(C)C)o1 [Example 103, 5-tert-Butyl-[1,3,4]oxadiazole-2-carboxylic acid 2-methyl-4-[2-(1-methyl-1H-pyrazol-4-yl)-3H-imidazo[4,5-b]pyridin-7-yl]-benzylamide] | < 100
8 |  | < 100 | Cc1c(NC(=O)c2ccc3c(c2)OCC3(C)C)cc(F)cc1-c1ccnc2[nH]c(-c3ccc(C(=O)N4CCOCC4)cc3)nc12 [Example 4, N-[5-Fluoro-2-methyl-3-(2-[4-[(morpholin-4-yl)carbonyl]phenyl]-3H-imidazo[4,5-b]pyridin-7-yl)phenyl]-3,3-dimethyl-2,3-dihydro-1-benzofuran-6-carboxamide] | 100 to 1000
9 |  | < 100 | CC(C)(C)c1noc(C(=O)NCc2ccc(-c3ccnc4[nH]c(-c5ccc(N6CCC(F)(F)CC6)cn5)nc34)cc2F)n1 [Example 164, 3-tert-butyl-N-[(4-[2-[5-(4,4-difluoropiperidin-1-yl)pyridin-2-yl]-3H-imidazo[4,5-b]pyridin-7-yl]-2-fluorophenyl)methyl]-1,2,4-oxadiazole-5-carboxamide] | 100 to 1000
10 |  | < 100 | CN1CC=C(c2ccc(-c3nc4c(-c5ccc(CNC(=O)c6noc(C(C)(C)C)n6)c(F)c5)ccnc4[nH]3)nc2)CC1 [Example 85, 5-tert-Butyl-N-[(2-fluoro-4-[2-[5-(1-methyl-1,2,3,6-tetrahydropyridin-4-yl)pyridin-2-yl]-3H-imidazo [4,5-b]pyridin-7-yl]phenyl)methyl]-1,2,4-oxadiazole-3-carboxamide; trifluoroacetic acid] | 100 to 1000
11 |  | < 100 | Cn1cc(-c2nc3c(-c4ccc(C5(NC(=O)c6noc(C(C)(C)C)n6)CC5)c(F)c4)ccnc3[nH]2)cn1 [Example 51, 5-tert-Butyl-N-(1-[2-fluoro-4-[2-(1-methyl-1H-pyrazol-4-yl)-3H-imidazo[4,5-b]pyridin-7-yl]phenyl]cyclopropyl)-1,2,4-oxadiazole-3-carboxamide] | < 100
12 |  | < 100 | COc1ccc(-c2nc3c(-c4ccc(CNC(=O)c5nc(C(C)(C)C)no5)c(F)c4)ccnc3[nH]2)nc1 [Example 161, 3-tert-butyl-N-([2-fluoro-4-[2-(5-methoxypyridin-2-yl)-3H-imidazo[4,5-b]pyridin-7-yl]phenyl]methyl)-1,2,4-oxadiazole-5-carboxamide] | < 100
13 |  | < 100 | CC(C)(C)c1noc(C(=O)NCc2ccc(-c3ccnc4[nH]c(-c5ccc(CN6CCOCC6)cn5)nc34)cc2F)n1 [Example 162, 3-tert-butyl-N-[(2-fluoro-4-[2-[5-(morpholin-4-ylmethyl)pyridin-2-yl]-3H-imidazo[4,5-b]pyridin-7-yl]phenyl)methyl]-1,2,4-oxadiazole-5-carboxamide] | < 100
14 |  | < 100 | CCn1cc(-c2nc3c(-c4ccc(CNC(=O)c5nnc(C(C)(C)C)o5)c(F)c4)ccnc3[nH]2)cn1 [Example 135, 5-(tert-butyl)-N-(4-(2-(1-ethyl-1H-pyrazol-4-yl)-3H-imidazo[4,5-b]pyridin-7-yl)-2-fluorobenzyl)-1,3,4-oxadiazole-2-carboxamide] | < 100
15 |  | < 100 | Cn1cc(-c2nc3c(-c4cccc(N5CCc6cc(C7CC7)ccc6C5=O)c4CO)ccnc3[nH]2)cn1 [Example 7, 6-cyclopropyl-2-(2-(hydroxymethyl)-3-(2-(1-methyl-1H-pyrazol-4-yl)-3H-imidazo[4,5-b]pyridin-7-yl)phenyl)-3,4-dihydroisoquinolin-1(2H)-one] | 1000 to 5000
16 |  | < 100 | C=CC(=O)Nc1ccccc1-c1nc2nccc(-c3ccc(CNC(=O)c4nc(C(C)(C)C)no4)c(F)c3)c2[nH]1 [Example 160, 3-tert-butyl-N-[(2-fluoro-4-[2-[2-(prop-2-enamido)phenyl]-3H-imidazo[4,5-b]pyridin-7-yl]phenyl)methyl]-1,2,4-oxadiazole-5-carboxamide] | < 100
17 |  | < 100 | C=CC(=O)Nc1cccc(-c2nc3nccc(-c4ccc(CNC(=O)c5nc(C(C)(C)C)no5)c(F)c4)c3[nH]2)c1 [Example 163, 3-tert-butyl-N-[(2-fluoro-4-[2-[3-(prop-2-enamido)phenyl]-3H-imidazo[4,5-b]pyridin-7-yl]phenyl)methyl]-1,2,4-oxadiazole-5-carboxamide] | < 100
18 |  | < 100 | CN1CCN(Cc2ccc(-c3nc4c(-c5ccc(CNC(=O)c6noc(C(C)(C)C)n6)c(F)c5)ccnc4[nH]3)nc2)CC1 [Example 69, 5-tert-Butyl-N-[[2-fluoro-4-(2-[5-[(4-methylpiperazin-1-yl)methyl]pyridin-2-yl]-3H-imidazo[4,5-b]pyridin-7-yl)phenyl]methyl]-1,2,4-oxadiazole-3-carboxamide] | < 100
19 |  | < 100 | CC(C)(C)c1nc(C(=O)NCc2ccc(-c3ccnc4[nH]c(C5=CCNCC5)nc34)cc2F)no1 [Example 134, 5-tert-Butyl-[1,2,4]oxadiazole-3-carboxylic acid 2-fluoro-4-[2-(1,2,3,6-tetrahydro-pyridin-4-yl)-3H-imidazo[4,5-b]pyridin-7-yl]-benzylamide] | 100 to 1000
20 |  | < 100 | COc1cccc(-c2nc3c(-c4ccc(CNC(=O)c5ccc(C6CC6)cc5)c(F)c4)ccnc3[nH]2)c1 [Example 64, 4-Cyclopropyl-N-([2-fluoro-4-[2-(3-methoxyphenyl)-3H-imidazo[4,5-b]pyridin-7-yl]phenyl]methyl) benzamide] | 100 to 1000
21 |  | < 100 | O=C(c1ccc(-c2nc3c(-c4cccc(N5CCOc6cc(C7CC7)cc(F)c6C5=O)c4CO)ccnc3[nH]2)cc1)N1CCOCC1 [Example 1, 8-Cyclopropyl-6-fluoro-4-[2-(hydroxymethyl)-3-(2-[4-[(morpholin-4-yl)carbonyl]phenyl]-3H-imidazo [4,5-b]pyridin-7-yl)phenyl]-2,3,4,5-tetrahydro-1,4-benzoxazepin-5-one] | 1000 to 5000
22 |  | < 100 | Cn1cc(-c2nc3c(-c4ccc(CNC(=O)c5noc(C6CC6)n5)c(F)c4)ccnc3[nH]2)cn1 [Example 59, 5-Cyclopropyl-N-([2-fluoro-4-[2-(1-methyl-1H-pyrazol-4-yl)-3H-imidazo[4,5-b]pyridin-7-yl]phenyl]methyl)-1,2,4-oxadiazole-3-carboxamide] | 100 to 1000
